According to ChEMBL document CHEMBL2074280, “Acceleration of MRP-associated efflux of rhodamine 123 by genistein and related compounds” (Br J Cancer, 1996):

What was measured:
Type in all cases: functional, cell-based
[1] = molecular target: T1, Multidrug resistance-associated protein 1 (Homo sapiens, UniProt P33527); test: TP_TRANSPORTER: increase in DNR intracellular accumulation (DNR: 0.5 uM, Genistein: 200 uM) in MOR-R cells
[2] = molecular target: T1, Multidrug resistance-associated protein 1; test: TP_TRANSPORTER: increase in DNR intracellular accumulation (DNR: 0.5 uM, Genistein: 200 uM) in COR-L23/R cells
[3] = molecular target: ATP-dependent translocase ABCB1 (Homo sapiens, UniProt P08183); test: TP_TRANSPORTER: increase in DNR intracellular accumulation (DNR: 0.5 uM, Genistein: 200 uM) in H69/LX4 cells; details: h69/lx4, 200 µM
Chain of ATP-dependent translocase ABCB1 (P08183 whole entry): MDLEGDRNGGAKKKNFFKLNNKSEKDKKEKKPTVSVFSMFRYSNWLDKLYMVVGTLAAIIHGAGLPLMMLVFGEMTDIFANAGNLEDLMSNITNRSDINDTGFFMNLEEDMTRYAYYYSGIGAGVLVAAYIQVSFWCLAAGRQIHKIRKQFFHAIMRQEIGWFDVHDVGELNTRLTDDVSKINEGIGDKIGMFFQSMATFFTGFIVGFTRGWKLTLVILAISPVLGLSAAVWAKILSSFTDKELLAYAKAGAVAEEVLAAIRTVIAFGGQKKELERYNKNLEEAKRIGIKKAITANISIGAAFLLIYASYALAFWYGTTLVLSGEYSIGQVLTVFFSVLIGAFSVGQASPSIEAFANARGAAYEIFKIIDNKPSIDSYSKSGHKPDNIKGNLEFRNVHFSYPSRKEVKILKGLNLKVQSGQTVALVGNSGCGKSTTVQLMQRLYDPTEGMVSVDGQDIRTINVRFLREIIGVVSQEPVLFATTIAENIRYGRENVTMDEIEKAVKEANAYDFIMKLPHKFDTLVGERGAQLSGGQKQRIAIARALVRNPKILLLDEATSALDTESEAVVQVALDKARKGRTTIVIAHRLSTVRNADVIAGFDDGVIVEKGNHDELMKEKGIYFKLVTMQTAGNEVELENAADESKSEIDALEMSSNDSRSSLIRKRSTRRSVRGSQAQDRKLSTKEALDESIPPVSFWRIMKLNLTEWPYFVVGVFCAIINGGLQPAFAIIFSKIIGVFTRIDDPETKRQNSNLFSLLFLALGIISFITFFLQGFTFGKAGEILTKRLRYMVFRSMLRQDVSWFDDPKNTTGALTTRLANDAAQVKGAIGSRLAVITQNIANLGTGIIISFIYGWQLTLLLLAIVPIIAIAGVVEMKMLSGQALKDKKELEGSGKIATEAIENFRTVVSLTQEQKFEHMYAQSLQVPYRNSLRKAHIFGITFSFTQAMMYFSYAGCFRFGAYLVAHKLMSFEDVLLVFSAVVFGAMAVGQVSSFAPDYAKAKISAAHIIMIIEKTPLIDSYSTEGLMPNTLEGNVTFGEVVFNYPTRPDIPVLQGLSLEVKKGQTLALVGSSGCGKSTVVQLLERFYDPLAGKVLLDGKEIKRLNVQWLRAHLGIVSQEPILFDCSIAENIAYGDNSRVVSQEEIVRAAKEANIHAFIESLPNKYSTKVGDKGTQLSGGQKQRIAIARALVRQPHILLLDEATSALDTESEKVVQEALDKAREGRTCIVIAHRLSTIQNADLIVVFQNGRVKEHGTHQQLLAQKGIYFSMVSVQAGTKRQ

T1 sequence (P33527 whole entry): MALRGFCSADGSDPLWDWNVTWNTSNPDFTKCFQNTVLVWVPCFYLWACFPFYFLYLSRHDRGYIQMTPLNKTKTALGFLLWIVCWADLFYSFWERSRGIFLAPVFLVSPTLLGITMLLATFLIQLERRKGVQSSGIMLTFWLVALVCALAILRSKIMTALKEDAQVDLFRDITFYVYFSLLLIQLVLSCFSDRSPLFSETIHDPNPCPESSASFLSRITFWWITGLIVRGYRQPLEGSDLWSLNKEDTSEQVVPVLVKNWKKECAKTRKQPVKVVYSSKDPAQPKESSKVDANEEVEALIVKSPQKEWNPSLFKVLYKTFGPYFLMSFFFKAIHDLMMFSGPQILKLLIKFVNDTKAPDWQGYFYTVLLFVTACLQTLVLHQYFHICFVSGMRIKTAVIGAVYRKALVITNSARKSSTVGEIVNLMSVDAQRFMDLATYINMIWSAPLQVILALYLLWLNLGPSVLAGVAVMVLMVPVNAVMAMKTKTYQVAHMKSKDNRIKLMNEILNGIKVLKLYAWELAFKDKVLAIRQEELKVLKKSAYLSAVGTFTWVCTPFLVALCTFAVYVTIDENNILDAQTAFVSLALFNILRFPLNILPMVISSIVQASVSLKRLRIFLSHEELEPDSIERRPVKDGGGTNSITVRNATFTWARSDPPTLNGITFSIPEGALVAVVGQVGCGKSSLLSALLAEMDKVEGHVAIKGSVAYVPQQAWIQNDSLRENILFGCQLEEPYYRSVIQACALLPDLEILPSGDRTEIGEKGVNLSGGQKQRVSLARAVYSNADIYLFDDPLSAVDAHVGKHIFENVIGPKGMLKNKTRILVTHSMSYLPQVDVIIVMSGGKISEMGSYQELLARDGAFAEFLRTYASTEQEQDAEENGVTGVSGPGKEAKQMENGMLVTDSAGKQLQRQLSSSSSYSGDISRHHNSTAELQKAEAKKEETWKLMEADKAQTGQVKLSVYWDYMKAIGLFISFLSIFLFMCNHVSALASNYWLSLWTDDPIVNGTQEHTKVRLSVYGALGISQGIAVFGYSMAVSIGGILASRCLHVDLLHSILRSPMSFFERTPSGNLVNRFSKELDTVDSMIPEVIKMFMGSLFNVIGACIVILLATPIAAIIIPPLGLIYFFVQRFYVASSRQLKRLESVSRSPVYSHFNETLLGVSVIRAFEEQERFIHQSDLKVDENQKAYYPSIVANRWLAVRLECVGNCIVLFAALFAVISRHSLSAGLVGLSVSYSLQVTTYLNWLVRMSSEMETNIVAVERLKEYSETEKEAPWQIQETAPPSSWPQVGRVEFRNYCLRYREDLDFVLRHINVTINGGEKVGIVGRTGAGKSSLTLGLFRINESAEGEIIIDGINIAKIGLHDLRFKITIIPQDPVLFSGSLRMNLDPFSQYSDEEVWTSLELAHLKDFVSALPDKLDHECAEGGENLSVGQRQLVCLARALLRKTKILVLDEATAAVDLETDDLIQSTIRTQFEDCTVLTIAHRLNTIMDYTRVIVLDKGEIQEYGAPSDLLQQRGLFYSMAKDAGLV

Activity [1]: inhibitor [+]
Activity [2]: inhibitor [+]
Activity [3]: inhibitor [+]
SMILES: O=c1c(-c2ccc(O)cc2)coc2cc(O)cc(O)c12 [GENISTEIN]
